This note sets out measurements from ChEMBL document CHEMBL5729525, “Therapeutic compounds and methods of use thereof” (2023).

What is called IC50 is the point on the concentration scale where inhibition reaches its midpoint. Read a high IC50 as weaker potency in that assay.

The target in the assay is Protein cereblon (Homo sapiens, UniProt Q96SW2). Description: Fluorescence Binding Assay: Fluorescence quenching end point measurements were performed in black polystyrene 384-plates on Tecan Safire monochromator reader with the following settings: excitation 280 nm; excitation bandwidth 10.0 nm; emission collection 340 nm; emission bandwidth 20.0 nm; high sensitivity flash mode; integration time 40 μS; delay 0 […]. All measurements were done in duplicates; GraphPad Prism 5.03 was used for data evaluation, curve fitting, plotting and determination of IC50 values.Serial dilutions of each tested ligands were mixed with truncated CRBN (319-427) to a final volume of 25 μL in the assay buffer (20 mM sodium phosphate buffer, pH 6.5, with 150 mM sodium chloride). The final concentration of CRBN in all assay will be 5-10 μM with DMSO level at 4%. A control lanes were prepared with only tested ligands without the addition of CRBN, top up with assay buffer to 25 μL. Plates were incubated for 5 minutes and analyzed using the monochromator plate reader.
Chain of Protein cereblon (Q96SW2 whole entry, the tested form may be a part): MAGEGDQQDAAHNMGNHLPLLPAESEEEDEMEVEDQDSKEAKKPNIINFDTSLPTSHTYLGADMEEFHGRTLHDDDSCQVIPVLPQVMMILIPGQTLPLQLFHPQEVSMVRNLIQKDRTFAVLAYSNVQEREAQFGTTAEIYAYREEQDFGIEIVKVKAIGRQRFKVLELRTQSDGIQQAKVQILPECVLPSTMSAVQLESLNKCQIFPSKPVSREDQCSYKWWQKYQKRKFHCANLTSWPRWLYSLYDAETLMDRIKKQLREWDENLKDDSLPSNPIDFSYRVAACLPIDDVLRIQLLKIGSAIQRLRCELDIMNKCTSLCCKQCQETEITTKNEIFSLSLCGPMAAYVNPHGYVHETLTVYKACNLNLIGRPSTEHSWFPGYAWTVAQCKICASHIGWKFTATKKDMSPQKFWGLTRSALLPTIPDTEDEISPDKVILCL

Each structure is given as a SMILES string. A value given as a limit tells only on which side of the number the result lay.

In turn, `Nc1ccc(-c2ccc3c(c2)CC(=O)N3)cn1` showed an IC50 above 300 µM.
